According to US7232906B2, “Substituted pyrrolines as kinase inhibitors” (Janssen Pharmaceutica N.V., priority 2002, dated 2007):

Legend:
Type in all cases: biochemical
[1] = biological target: recombinant rabbit GSK-3β (Oryctolagus cuniculus, UniProt G1T8E2); experiment: Glycogen Synthase Kinase-3 assay; set-up: GSK-3β Assay Activity, % @ 200 nM: scale not given here; conditions: PPI-2 substrate; for IC50: 33P-ATP, 90 minutes at 30° C.
Method: Compounds were tested for the ability to inhibit recombinant rabbit GSK-3β using the following protocol. The test compound was added to a reaction mixture containing Protein phosphatase inhibitor-2 (PPI-2) (Calbiochem) (45 ng), rabbit GSK-3β (New England Biolabs) (0.75 units) and ^33P-ATP (1 μCi) in 50 mM Tris-HCl (pH 8.0), 10 mM MgCl2, 0.1% BSA, 1 mM DTT and 100 μM Sodium Vanadate. The mixture was reacted for 90 minutes at 30° C. to allow phosphorylation of the PPI-2 protein and then the protein in the reaction was precipitated using 10% TCA. The precipitated protein was collected on filter plates (MultiScreen-DV/Millipore), which were subsequently washed. Finally, the radioactivity was quantified using a TopCount Scintillation Counter (Packard). […] Staurosporine or Valproate, known inhibitors of GSK-3β, were used as a positive control for screening.

PKC γ = PKC γ (Homo sapiens, UniProt P05129); experiment: Protein Kinase C histone-based assay, γ isoform; set-up: PKC Activity Gamma, % @ 10 μM (Histone Based Assay): scale not given here; conditions: histone III substrate; for IC50: 30 μM ATP, approximately ± 30 percent margin of error, read-out: PKC Activity Gamma (IC50, Histone Based Assay)
Method: (§1) Compounds were evaluated for PKC selectivity using histone III as the substrate. The PKC isoforms α, β-II or γ were added to a reaction mixture that contained 20 mM HEPES, (pH 7.4), 940 μM CaCl2, 10 mM MgCl2, 1 mM EGTA. 100 μg/mL phosphatidylserine, 20 μg/mL diacylglycerol, 30 μM ATP, 1 μCi (^33P)ATP and 200 μg/mL histone III. The reaction was incubated for 10 min at 30° C. Reactions were terminated by TCA precipitation and spotting on Whatman P81 filters. Filters were washed in 75 mM phosphoric acid and the radioactivity quantified by liquid scintillation counting.

PKC β-II = PKC β-II (Homo sapiens, UniProt P05771); experiment: Protein Kinase C histone-based assay, β-II isoform; set-up: PKC Activity Beta II, % @ 1 μM (Histone Based Assay): scale not given here; conditions: histone III substrate; for IC50: 30 μM ATP, approximately ± 30 percent margin of error, read-out: PKC Activity Beta II (IC50, Histone Based Assay)
Method: as §1

PKC α = PKC α (Homo sapiens, UniProt P17252); experiment: Protein Kinase C histone-based assay, α isoform; set-up: PKC Activity Alpha, % @ 10 μM (Histone Based Assay): scale not given here; conditions: histone III substrate; for IC50: 30 μM ATP, approximately ± 30 percent margin of error, read-out: PKC Activity Alpha (IC50, Histone Based Assay)
Method: as §1

recombinant rabbit GSK-3β, sequence (G1T8E2 1-432): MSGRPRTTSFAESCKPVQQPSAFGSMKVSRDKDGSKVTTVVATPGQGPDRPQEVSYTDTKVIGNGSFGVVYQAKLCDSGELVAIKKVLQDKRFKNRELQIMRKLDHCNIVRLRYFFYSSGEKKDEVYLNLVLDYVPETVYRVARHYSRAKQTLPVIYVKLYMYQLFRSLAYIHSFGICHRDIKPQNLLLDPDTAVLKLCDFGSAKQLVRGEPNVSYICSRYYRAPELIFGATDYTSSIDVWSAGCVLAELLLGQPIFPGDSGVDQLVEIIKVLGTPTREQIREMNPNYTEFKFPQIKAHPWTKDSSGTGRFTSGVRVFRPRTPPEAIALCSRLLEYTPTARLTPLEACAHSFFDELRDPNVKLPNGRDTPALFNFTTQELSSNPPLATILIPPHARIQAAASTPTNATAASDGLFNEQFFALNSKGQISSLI
PKC β-II, sequence (P05771 1-673 isoform P05771-2): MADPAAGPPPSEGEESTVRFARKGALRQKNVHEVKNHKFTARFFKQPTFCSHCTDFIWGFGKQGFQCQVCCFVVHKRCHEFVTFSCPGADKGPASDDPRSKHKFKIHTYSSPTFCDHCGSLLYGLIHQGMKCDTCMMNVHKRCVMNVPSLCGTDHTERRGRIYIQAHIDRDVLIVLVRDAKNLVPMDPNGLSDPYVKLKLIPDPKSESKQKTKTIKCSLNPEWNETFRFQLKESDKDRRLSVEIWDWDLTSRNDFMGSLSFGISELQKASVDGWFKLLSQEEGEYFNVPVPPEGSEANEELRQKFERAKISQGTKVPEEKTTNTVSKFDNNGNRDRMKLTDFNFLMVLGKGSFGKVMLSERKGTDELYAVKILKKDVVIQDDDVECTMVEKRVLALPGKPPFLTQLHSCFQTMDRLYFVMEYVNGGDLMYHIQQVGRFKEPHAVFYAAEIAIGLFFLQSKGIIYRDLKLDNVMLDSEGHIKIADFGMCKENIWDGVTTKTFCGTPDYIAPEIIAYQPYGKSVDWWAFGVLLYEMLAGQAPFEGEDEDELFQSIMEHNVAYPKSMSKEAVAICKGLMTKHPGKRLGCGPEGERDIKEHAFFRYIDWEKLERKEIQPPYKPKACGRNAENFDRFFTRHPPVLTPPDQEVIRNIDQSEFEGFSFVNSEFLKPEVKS

| Compound | GSK-3β Assay Activity, % @ 200 nM [1] | IC50 [1] | IC50 (PKC β-II) | IC50 (PKC α) | further results |
| --- | --- | --- | --- | --- | --- |
| 3-(3-bromophenyl)-4-[1-[3-(3-butynylmethylamino)propyl]-1H-indol-3-yl]-1H-pyrrole-2,5-dione [Cpd 22] | 62% @ 200 nM |  |  |  |  |
| COc1ccccc1C1=C(c2cn(CCN(C)CCO)c3ccccc23)C(=O)NC1=O [Cpd 9, 3-[1-[2-[(2-hydroxyethyl)methylamino]ethyl]-1H-indol-3-yl]-4-(2-methoxyphenyl)-1H-pyrrole-2,5-dione] |  | 27 nM |  |  | PKC Activity Gamma, % @ 10 μM (Histone Based Assay) (PKC γ): 15% @ 10 μM; PKC Activity Beta II, % @ 1 μM (Histone Based Assay) (PKC β-II): 40% @ 1 μM; PKC Activity Alpha, % @ 10 μM (Histone Based Assay) (PKC α): 27% @ 10 μM |
| COc1ccccc1C1=C(c2cn(-c3cncc(C(=O)O)c3)c3ccc(Cl)cc23)C(=O)NC1=O [Cpd 56, 5-{5-Chloro-3-[4-(2-methoxyphenyl)-2,5-dioxo-2,5-dihydro-1H-pyrrol-3-yl]-indol-1-yl}-nicotinic acid] |  | 51 nM | 42 nM | 592 nM | IC50 (PKC γ): 832 nM |
| CCOC(Cn1cc(C2=C(c3ccccc3OC)C(=O)NC2=O)c2ccccc21)OCC [Cpd 7, 3-[1-(2,2-diethoxyethyl)-1H-indol-3-yl]-4-(2-methoxy-phenyl)-1H-pyrrole-2,5-dione] |  | 390 nM |  |  | PKC Activity Gamma, % @ 10 μM (Histone Based Assay) (PKC γ): 54% @ 10 μM; PKC Activity Beta II, % @ 1 μM (Histone Based Assay) (PKC β-II): 68% @ 1 μM; PKC Activity Alpha, % @ 10 μM (Histone Based Assay) (PKC α): 39% @ 10 μM |
| CN(C)CCCn1cc(C2=C(c3csc4ccc(Cl)cc34)C(=O)NC2=O)c2ccccc21 [Cpd 31, 3-(5-chlorobenzo[b]thien-3-yl)-4-[1-[3-(dimethylamino)propyl]-1H-indol-3-yl]-1H-pyrrole-2,5-dione] |  |  | 81 nM | 83 nM |  |
| CN(C)CC(O)COc1ccccc1C1=C(c2cn(CCO)c3ccccc23)C(=O)NC1=O (stereo not shown) [Cpd 21, 3-[2-[3-(dimethylamino)-2-hydroxypropoxy]phenyl]-4-[1-(2-hydroxyethyl)-1H-indol-3-yl]-1H-pyrrole-2,5-dione] |  |  | 51 nM | 117 nM | IC50 (PKC γ): 477 nM |
| COC(=O)c1cncc(-n2cc(C3=C(c4ccccc4OC)C(=O)NC3=O)c3cc(Cl)ccc32)c1 [Cpd 57, 5-{5-Chloro-3-[4-(2-methoxyphenyl)-2,5-dioxo-2,5-dihydro-1H-pyrrol-3-yl]-indol-1-yl}-nicotinic acid methyl ester] |  | 40 nM |  |  |  |
| COc1ccccc1C1=C(c2cn(-c3cncnc3)c3ccccc23)C(=O)NC1=O [Cpd 26, 3-(2-methoxyphenyl)-4-[1-(5-pyrimidinyl)-1H-indol-3-yl]-1H-pyrrole-2,5-dione] |  | 8 nM | 607 nM | 2070 nM | PKC Activity Gamma, % @ 10 μM (Histone Based Assay) (PKC γ): 29% @ 10 μM |
| C=Cn1cc(C2=C(c3cccc(OCC(O)CN(C)C)c3)C(=O)NC2=O)c2ccccc21 (stereo not shown) [Cpd 2, 3-[3-[3-(dimethylamino)-2-hydroxypropoxy]phenyl]-4-(1-ethenyl-1H-indol-3-yl)-1H-pyrrole-2,5-dione] | 72% @ 200 nM |  |  |  |  |
| CN(C)CCCn1cc(C2=C(c3cccc4ccccc34)C(=O)NC2=O)c2ccccc21 [Cpd 12, 3-[1-[3-(dimethylamino)propyl]-1H-indol-3-yl]-4-(1-naphthalenyl)-1H-pyrrole-2,5-dione] | 64% @ 200 nM |  |  |  |  |
| O=C1NC(=O)C(c2cn(-c3cccnc3)c3ccccc23)=C1c1ccc(O)cc1 [Cpd 29, 3-(4-hydroxyphenyl)-4-[1-(3-pyridinyl)-1H-indol-3-yl]-1H-pyrrole-2,5-dione] |  | 96 nM |  |  |  |
| 3-(2-bromo-5-[3-(dimethylamino)propyl]phenyl]-4-(1-phenyl-1H-indol-3-yl)-1H-pyrrole-2,5-dione [Cpd 25] |  | 110 nM |  |  |  |
| CN(CCO)CCn1cc(C2=C(c3csc4ccc(Cl)cc34)C(=O)NC2=O)c2ccccc21 [Cpd 41, 3-(5-chlorobenzo[b]thien-3-yl)-4-(1-[2-[(2-hydroxyethyl)methylamino]ethyl]-1H-indol-3-yl]-1H-pyrrole-2,5-dione] | 81% @ 200 nM |  |  |  |  |
| COc1ccccc1C1=C(c2cn(-c3cncc(C(N)=O)c3)c3ccc(Cl)cc23)C(=O)NC1=O [Cpd 58, 5-{5-Chloro-3-[4-(2-methoxyphenyl)-2,5-dioxo-2,5-dihydro-1H-pyrrol-3-yl]-indol-1-yl}-nicotinamide] |  | 18 nM | 32 nM | 816 nM | IC50 (PKC γ): 1270 nM |
| O=C1NC(=O)C(c2cn(CCN3CCSC3)c3ccccc23)=C1c1csc2ccc(Cl)cc12 [Cpd 46, 3-(5-chlorobenzo[b]thien-3-yl)-4-[1-[2-(3-thiazolidinyl)ethyl]-1H-indol-3-yl]-1H-pyrrole-2,5-dione] | 45% @ 200 nM |  |  |  |  |
| O=C1NC(=O)C(c2cn(-c3cccnc3)c3ccccc23)=C1c1ccccc1O [Cpd 28, 3-(2-hydroxyphenyl)-4-[1-(3-pyridinyl)-1H-indol-3-yl]-1H-pyrrole-2,5-dione] |  | 68 nM |  |  |  |
| 3-[1-[3-(3-butynylmethylamino)propyl]-1H-indol-3-yl]-4-(3-iodophenyl)-1H-pyrrole-2,5-dione [Cpd 23] | 67% @ 200 nM |  |  |  |  |
| COc1ccccc1C1=C(c2cn(C3CCOCC3)c3ccccc23)C(=O)NC1=O [Cpd 55, 3-(2-Methoxyphenyl)-4-[1-(tetrahydropyran-4-yl)-1H-indol-3-yl]-1H-pyrrole-2,5-dione] |  | 25 nM | 107 nM | 412 nM | IC50 (PKC γ): 282 nM |
| COc1ccccc1C1=C(c2cn(-c3cccnc3)c3ccccc23)C(=O)NC1=O [Cpd 27, 3-(2-methoxyphenyl)-4-[1-(3-pyridinyl)-1H-indol-3-yl]-1H-pyrrole-2,5-dione] |  | 26 nM | 527 nM |  | PKC Activity Alpha, % @ 10 μM (Histone Based Assay) (PKC α): 66% @ 10 μM |
| COc1ccccc1C1=C(c2cn(CC=O)c3ccccc23)C(=O)NC1=O [Cpd 8, 3-[2,5-dihydro-4-(2-methoxyphenyl)-2,5-dioxo-1H-pyrrol-3-yl]-1H-indole-1-acetaldehyde] |  | 39 nM |  |  |  |
